# Measured values taken from patent publication US11331299B2, “Medicinal use of serrulatane diterpenes” (The University of Sydney, priority 2016, dated 2022).
# Where two headings read alike, the source gives them in different places.
# Key:
# PB1(4) (h) bromodomain = biological target: T1, PB1(4) (h) bromodomain (Homo sapiens, UniProt Q86U86); experiment: Epigenetic binding assay, Bromodomain; conditions: 10 μM; read-out: % Inhibition of Control Specific Binding
# T1 construct: Bromodomain
# PHIP(2) (h) bromodomain = biological target: T2, PHIP(2) (h) bromodomain (Homo sapiens, UniProt Q8WWQ0); experiment: Epigenetic binding assay, Bromodomain; conditions: 10 μM; for inhibition at 10 µM: read-out: % Inhibition of Control Specific Binding
# T2 construct: Bromodomain
# SMARCA4 (h) bromodomain = biological target: T3, SMARCA4 (h) bromodomain (Homo sapiens, UniProt P51532); experiment: Epigenetic binding assay, Bromodomain; conditions: read-out: % Inhibition of Control Specific Binding
# T3 construct: Bromodomain
# H3K27 me2-1 = experiment: Cell-based detection methyl modifications; conditions: read-out: % Inhibition of Control Values
# CREBBP(h) = CREBBP(h) (Homo sapiens, UniProt Q92793); experiment: Epigenetic enzyme assay, Histone acetyltransferases (HATs); assay type: biochemical; conditions: for inhibition at 10 µM: read-out: % Inhibition of Control Values; for IC50: Table 11, inhibition/concentration-response curve
# MYST4(h) = MYST4(h) (Homo sapiens, UniProt Q8WYB5); experiment: as above; assay type: biochemical; conditions: for inhibition at 10 µM: read-out: % Inhibition of Control Values
# HDAC5 (h) = HDAC5 (h) (Homo sapiens, UniProt Q9UQL6); experiment: Epigenetic enzyme assay, Histone deacetylase (HDACs); assay type: biochemical; conditions: read-out: % Inhibition of Control Values
# HDAC8 (h) = biological target: T4, HDAC8 (h) (Homo sapiens, UniProt Q9BY41); experiment: as above; assay type: biochemical; conditions: read-out: % Inhibition of Control Values
# T4 sequence (Q9BY41 1-377): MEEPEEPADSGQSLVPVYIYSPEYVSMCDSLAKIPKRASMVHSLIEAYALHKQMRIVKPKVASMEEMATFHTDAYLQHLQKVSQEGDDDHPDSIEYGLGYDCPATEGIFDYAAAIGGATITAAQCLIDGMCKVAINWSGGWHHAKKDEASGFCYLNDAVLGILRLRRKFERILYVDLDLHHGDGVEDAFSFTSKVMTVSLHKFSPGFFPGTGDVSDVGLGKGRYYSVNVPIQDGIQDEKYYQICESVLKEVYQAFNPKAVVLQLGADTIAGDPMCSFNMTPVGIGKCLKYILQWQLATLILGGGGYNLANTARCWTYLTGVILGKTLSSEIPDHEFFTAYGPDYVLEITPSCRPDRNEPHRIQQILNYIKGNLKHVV
# Sirtuin 6 (h) = Sirtuin 6 (h) (Homo sapiens, UniProt Q8N6T7); experiment: Epigenetic enzyme assay, Sirtuins; assay type: biochemical; conditions: 10 μM; read-out: % Inhibition of Control Values
# EZH1/EED/SUZ12 (h) = EZH1/EED/SUZ12 (h) (Homo sapiens, UniProt Q92800); experiment: Epigenetic enzyme assay, Methyltransferases (MTs); assay type: biochemical; conditions: read-out: % Inhibition of Control Values
# hSMYD2 = hSMYD2 (Homo sapiens, UniProt Q9NRG4); experiment: Epigenetic enzyme assay, Methyltransferases (MTs); assay type: biochemical; conditions: for inhibition at 10 µM: read-out: % Inhibition of Control Values
# PRMT3 (h) = PRMT3 (h) (Homo sapiens, UniProt O60678); experiment: Epigenetic enzyme assay, Methyltransferases (MTs); assay type: biochemical; conditions: for inhibition at 10 µM: read-out: % Inhibition of Control Values
# [1] = biological target: Aurora B (h) (substrate histone H3 full length) (Homo sapiens, UniProt Q96GD4); experiment: Epigenetic enzyme assay, Kinases; assay type: biochemical; conditions: read-out: % Inhibition of Control Values
# Histamine H3 = biological target: T5, Histamine H3 (Homo sapiens, UniProt Q9Y5N1); experiment: Histamine H3 radio ligand binding
# T5 construct: expressed in transfected cells; host or cells: Chem-1 cells
# Description: (§1) The in vitro pharmacological studies were conducted by Eurofins PanLab (Taiwan) using the parameters shown in Table 13 with respect to appropriate literature references.
# [2] = biological target: T6, Protein Tyrosine Phosphatase, PTPN1 (PTP1B) (Homo sapiens, UniProt P18031); experiment: Protein Tyrosine Phosphatase, PTPN1 (PTP1B); assay type: biochemical; conditions: assay year 2015, read-out: % Control Response
# T6 construct: host or cells: E. coli
# T6 sequence (P18031 1-435): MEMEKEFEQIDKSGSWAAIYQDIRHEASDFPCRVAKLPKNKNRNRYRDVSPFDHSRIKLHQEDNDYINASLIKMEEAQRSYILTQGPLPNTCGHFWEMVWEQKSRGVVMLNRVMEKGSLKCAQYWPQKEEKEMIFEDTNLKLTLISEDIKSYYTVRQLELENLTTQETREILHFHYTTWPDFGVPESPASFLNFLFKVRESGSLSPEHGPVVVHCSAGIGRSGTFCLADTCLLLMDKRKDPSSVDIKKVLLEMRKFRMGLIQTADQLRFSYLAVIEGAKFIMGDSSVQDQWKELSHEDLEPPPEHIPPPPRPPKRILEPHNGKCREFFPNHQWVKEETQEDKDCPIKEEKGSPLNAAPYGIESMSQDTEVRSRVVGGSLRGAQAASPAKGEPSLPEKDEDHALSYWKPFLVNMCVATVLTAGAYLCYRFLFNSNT
# Description: as §1
# CYP2B6 = biological target: T7, CYP2B6 (Homo sapiens, UniProt P20813); experiment: Cytochrome P450 Inhibition (CYP panel); conditions: human, probe bupropion
# T7 sequence (P20813 1-491): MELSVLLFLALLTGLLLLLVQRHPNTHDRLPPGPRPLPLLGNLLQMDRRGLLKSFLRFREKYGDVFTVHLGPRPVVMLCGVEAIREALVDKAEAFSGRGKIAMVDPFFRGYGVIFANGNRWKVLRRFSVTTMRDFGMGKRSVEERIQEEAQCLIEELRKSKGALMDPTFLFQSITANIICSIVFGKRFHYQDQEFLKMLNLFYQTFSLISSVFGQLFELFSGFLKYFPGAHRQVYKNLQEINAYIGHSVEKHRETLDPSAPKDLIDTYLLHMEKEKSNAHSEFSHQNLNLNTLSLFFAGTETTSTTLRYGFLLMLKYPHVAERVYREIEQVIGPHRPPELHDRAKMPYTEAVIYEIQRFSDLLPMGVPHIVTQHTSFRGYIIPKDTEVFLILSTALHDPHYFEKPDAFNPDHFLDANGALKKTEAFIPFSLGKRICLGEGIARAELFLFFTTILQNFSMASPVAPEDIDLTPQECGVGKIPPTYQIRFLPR
# [3] = assay year 2014, read-out: % Control Response
# [4] = assay year 2015, read-out: % Control Response
# Chain of CREBBP(h) (Q92793 whole entry): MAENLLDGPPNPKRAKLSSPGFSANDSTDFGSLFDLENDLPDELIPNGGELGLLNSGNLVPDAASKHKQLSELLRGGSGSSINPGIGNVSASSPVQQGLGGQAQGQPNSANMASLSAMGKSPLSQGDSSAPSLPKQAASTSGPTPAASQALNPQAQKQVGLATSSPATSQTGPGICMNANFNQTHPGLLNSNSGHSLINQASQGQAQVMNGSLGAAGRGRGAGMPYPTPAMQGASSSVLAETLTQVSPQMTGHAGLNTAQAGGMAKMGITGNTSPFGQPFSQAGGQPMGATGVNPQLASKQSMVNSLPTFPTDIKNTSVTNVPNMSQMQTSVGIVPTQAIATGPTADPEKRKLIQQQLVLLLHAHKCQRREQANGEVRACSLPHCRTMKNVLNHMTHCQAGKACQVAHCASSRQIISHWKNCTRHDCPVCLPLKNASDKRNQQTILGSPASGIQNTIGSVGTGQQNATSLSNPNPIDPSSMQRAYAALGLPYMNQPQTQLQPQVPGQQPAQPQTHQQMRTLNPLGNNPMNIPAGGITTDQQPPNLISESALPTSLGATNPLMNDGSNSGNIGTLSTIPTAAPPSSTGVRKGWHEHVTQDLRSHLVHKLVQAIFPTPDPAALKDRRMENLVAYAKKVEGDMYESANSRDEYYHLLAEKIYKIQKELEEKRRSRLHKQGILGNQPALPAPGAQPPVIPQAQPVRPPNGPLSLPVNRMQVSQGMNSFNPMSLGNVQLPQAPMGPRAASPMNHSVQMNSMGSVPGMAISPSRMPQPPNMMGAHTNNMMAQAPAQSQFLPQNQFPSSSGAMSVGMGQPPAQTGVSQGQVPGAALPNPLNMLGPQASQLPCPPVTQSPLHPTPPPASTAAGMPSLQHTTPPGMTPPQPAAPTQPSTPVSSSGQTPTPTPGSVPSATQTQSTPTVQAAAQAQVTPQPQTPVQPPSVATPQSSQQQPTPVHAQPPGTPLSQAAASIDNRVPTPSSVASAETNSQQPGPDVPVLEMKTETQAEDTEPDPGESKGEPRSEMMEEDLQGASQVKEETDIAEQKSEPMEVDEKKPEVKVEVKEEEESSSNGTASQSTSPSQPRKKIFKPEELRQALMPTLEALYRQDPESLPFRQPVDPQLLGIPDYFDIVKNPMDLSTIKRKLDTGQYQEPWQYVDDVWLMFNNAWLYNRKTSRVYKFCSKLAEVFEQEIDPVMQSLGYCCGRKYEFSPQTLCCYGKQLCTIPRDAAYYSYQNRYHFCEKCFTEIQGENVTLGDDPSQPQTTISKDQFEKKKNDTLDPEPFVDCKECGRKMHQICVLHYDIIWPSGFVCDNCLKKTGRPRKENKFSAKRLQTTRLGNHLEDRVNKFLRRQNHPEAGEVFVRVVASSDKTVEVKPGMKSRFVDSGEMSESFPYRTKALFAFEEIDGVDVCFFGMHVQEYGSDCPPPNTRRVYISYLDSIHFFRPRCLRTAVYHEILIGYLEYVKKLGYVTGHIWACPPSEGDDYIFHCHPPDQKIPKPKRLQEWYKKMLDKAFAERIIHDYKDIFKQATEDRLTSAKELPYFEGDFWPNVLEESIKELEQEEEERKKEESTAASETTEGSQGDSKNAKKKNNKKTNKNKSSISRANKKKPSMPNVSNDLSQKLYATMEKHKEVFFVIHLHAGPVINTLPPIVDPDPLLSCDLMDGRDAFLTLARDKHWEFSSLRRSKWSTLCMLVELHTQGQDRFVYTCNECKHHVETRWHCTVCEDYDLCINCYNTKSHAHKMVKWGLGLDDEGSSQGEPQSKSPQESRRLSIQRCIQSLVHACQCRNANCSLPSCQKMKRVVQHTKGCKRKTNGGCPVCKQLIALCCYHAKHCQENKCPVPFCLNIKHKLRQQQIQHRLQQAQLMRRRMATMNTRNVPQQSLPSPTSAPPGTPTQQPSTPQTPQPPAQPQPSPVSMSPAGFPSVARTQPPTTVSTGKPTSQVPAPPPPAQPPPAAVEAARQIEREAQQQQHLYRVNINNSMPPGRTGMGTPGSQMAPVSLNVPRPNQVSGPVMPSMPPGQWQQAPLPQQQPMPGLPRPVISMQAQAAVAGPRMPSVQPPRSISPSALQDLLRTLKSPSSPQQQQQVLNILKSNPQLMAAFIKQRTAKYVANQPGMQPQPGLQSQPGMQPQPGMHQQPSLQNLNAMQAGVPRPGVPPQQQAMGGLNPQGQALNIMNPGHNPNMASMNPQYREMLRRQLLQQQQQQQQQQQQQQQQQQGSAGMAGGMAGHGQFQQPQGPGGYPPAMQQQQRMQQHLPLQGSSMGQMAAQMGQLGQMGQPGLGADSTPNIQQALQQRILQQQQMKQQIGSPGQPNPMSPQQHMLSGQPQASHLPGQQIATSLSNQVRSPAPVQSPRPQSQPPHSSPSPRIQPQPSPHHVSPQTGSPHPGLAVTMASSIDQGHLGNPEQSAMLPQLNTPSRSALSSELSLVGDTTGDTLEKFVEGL
# Chain of HDAC5 (h) (Q9UQL6 whole entry): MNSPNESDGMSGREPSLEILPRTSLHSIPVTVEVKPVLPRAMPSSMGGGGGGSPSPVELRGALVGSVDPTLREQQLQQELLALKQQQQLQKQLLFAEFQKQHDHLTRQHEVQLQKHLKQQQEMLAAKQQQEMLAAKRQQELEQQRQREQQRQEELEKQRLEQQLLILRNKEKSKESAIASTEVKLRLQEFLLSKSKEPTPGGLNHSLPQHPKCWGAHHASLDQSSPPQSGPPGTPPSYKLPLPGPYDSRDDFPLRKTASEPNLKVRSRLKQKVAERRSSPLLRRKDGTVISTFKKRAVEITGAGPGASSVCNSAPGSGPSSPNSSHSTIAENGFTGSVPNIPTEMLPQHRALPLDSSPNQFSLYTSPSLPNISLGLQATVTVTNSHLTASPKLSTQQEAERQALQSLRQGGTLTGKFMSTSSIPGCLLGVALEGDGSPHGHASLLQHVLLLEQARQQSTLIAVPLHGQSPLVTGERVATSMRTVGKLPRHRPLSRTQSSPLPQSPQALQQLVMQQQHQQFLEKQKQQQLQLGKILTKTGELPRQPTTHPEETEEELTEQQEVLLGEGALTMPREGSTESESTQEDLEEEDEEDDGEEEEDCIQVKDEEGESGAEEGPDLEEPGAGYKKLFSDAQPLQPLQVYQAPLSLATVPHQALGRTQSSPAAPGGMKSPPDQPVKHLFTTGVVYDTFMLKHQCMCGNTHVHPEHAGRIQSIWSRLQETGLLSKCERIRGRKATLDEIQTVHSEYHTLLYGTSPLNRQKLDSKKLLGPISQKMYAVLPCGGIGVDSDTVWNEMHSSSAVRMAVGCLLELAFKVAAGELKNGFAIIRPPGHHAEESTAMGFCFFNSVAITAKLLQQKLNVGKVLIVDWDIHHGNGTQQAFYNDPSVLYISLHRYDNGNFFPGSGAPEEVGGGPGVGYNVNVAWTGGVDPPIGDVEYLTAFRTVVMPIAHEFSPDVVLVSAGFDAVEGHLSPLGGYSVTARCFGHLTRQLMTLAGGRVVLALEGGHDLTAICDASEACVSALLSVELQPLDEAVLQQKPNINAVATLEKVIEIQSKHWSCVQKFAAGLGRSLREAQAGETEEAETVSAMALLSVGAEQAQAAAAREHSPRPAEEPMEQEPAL
# T5 sequence (Q9Y5N1 whole entry): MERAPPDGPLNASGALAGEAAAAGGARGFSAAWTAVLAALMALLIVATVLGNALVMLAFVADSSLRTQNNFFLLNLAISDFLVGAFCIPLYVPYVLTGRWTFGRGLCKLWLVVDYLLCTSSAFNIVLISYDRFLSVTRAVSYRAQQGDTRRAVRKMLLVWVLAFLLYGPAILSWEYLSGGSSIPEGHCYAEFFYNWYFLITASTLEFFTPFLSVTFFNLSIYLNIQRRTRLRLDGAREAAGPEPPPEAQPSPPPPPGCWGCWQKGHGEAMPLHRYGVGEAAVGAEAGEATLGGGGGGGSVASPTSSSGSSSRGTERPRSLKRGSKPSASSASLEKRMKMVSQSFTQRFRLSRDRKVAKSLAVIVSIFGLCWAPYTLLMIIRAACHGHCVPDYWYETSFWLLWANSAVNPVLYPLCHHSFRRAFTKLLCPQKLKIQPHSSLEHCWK
# T3 sequence (P51532 1453-1564 limits assumed): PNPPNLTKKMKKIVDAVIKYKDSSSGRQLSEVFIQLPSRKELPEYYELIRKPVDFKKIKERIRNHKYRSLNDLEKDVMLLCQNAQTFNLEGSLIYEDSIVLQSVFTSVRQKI
# T1 sequence (Q86U86 518-625 limits assumed): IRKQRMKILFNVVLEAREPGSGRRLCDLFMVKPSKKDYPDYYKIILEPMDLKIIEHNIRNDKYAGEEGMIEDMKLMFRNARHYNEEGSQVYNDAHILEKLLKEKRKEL
# Chain of PRMT3 (h) (O60678 whole entry): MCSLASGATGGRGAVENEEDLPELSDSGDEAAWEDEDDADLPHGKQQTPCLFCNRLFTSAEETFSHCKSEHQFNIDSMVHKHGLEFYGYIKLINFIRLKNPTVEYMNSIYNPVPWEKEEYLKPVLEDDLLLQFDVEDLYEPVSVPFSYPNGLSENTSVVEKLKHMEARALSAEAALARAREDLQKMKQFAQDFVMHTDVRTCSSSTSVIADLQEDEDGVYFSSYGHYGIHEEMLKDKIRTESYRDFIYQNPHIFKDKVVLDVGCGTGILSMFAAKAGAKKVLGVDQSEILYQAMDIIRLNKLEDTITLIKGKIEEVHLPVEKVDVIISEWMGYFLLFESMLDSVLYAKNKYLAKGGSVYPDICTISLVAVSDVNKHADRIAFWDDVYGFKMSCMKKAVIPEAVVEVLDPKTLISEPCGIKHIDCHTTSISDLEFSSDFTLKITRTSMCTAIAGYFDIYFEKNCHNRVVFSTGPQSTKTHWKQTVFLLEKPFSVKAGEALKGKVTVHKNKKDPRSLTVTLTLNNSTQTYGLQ
SMILES,inhibition at 10 µM (PB1(4) (h) bromodomain) [%],inhibition at 10 µM (PHIP(2) (h) bromodomain) [%],inhibition at 10 µM (SMARCA4 (h) bromodomain) [%],inhibition at 10 µM (H3K27 me2-1) [%],inhibition at 10 µM (CREBBP(h)) [%],IC50 (CREBBP(h)) [µM],inhibition at 10 µM (MYST4(h)) [%],inhibition at 10 µM (HDAC5 (h)) [%],inhibition at 10 µM (HDAC8 (h)) [%],inhibition at 10 µM (Sirtuin 6 (h)) [%],inhibition at 10 µM (EZH1/EED/SUZ12 (h)) [%],inhibition at 10 µM (hSMYD2) [%],inhibition at 10 µM (PRMT3 (h)) [%],inhibition at 10 µM [1] [%],remaining activity at 10 µM (Histamine H3; [3]) [%],remaining activity at 10 µM (Histamine H3; [4]) [%],remaining activity at 10 µM [2] [%],inhibition at 1 µM (CYP2B6; human liver microsomes) [%],inhibition at 1 µM (CYP2B6; liver microsomes) [%],inhibition at 10 µM (CYP2B6; liver microsomes) [%],other results
"CC(C)=CCC[C@H](CO)[C@@H]1CC[C@@H](C)c2c1cc(C)c(O)c2O [Compound 1, 7,8,18-trihydroxyserrulat-14-ene]",41,61,53,-2,74,3.9,25,-3,-8,2,-1,12,22,6,-10,12,20,13 to 16,13,55,% Inhibition of Control Specific Binding (PHIP(2) (h) bromodomain): significant inhibitory activity
"CC(C)=CCC[C@@H]1C(O)Oc2c(C)cc(O)c3c2[C@H]1CC[C@H]3C (some centres unmarked) [Compound 2, 5,18-epoxyserrulat-14-en-8,18-diol]",-3,30,16,3,78,6.1,39,-2,-19,6,3,5,50,4,-5,24,3,13 to 16,15,38,
Nc1ncnc2c1ncn2[C@@H]1O[C@H](CSCC[C@H](N)C(=O)O)[C@@H](O)[C@H]1O [SAH],,,,,,,,,,,,,,,,,,,,,IC50 (hSMYD2; read-out: Reference IC50): 0.16 µM; IC50 (PRMT3 (h); read-out: Reference IC50): 0.86 µM
"CC(C)=CCC[C@@H]1COc2c(C)cc(O)c3c2[C@H]1CC[C@H]3C [Compound 3, 5,18-epoxy-8-hydroxyserrulat-14-ene]",16,23,13,2,43,,71,-1,0,-4,-12,-12,14,-1,,1,-3,,,,
"CC(C)=CCC[C@H](C)[C@@H]1CC[C@@H](C)c2c1cc(C)c(O)c2O [Compound 4, 7,8-dihydroxyserrulat-14-ene]",,,,,,,,,,,,,,,,,,13 to 16,16,49,"IC50 (MYST4(h); Table 11, inhibition/concentration-response curve): 4.2 µM"
